Measurements from PubChem BioAssay AID328 (DTP/NCI, 2004).
Values joined by “and” are separate entries in the source; they are usually repeats but may differ in a detail not shown here. Equal values may be shown once. Toxic doses and inconclusive results are not listed.

Test system: BDF1 mice, P388 leukemia ip, median survival T/C
Assay: NCI In Vivo Anticancer Drug Screen. Data for tumor model P388 Leukemia (intraperitoneal) in B6D2F1 (BDF1) mice
Settings: endpoint: median survival time, higher = longer survival
Summary of the method: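 Reported as T/C, where T is the survival measurement in dosed animals and C the same measurement in vehicle controls.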

[1] = dose: 12.5 mg/kg/injection, schedule: Q01DX009 (ip), vehicle: saline
[2] = dose: 25.0 mg/kg/injection, schedule: Q01DX009 (ip), vehicle: Klucel (hydroxypropylcellulose) (HPC)
[3] = dose: 100.0 mg/kg/injection, schedule: Q04DX003 (ip), vehicle: saline with Tween-80
[4] = dose: 200.0 mg/kg/injection, schedule: Q04DX003 (ip), vehicle: saline with Tween-80
[5] = dose: 400.0 mg/kg/injection, schedule: Q04DX003 (ip), vehicle: saline with Tween-80
[6] = dose: 200.0 mg/kg/injection, schedule: Q01DX009 (ip), vehicle: saline with Tween-80
[7] = dose: 50.0 mg/kg/injection, schedule: Q01DX009 (ip), vehicle: Klucel (hydroxypropylcellulose) (HPC)
[8] = dose: 100.0 mg/kg/injection, schedule: Q01DX009 (ip), vehicle: Klucel (hydroxypropylcellulose) (HPC)
[9] = dose: 100.0 mg/kg/injection, schedule: Q04DX003 (ip), vehicle: Klucel (hydroxypropylcellulose) (HPC)
[10] = dose: 200.0 mg/kg/injection, schedule: Q01DX009 (ip), vehicle: Klucel (hydroxypropylcellulose) (HPC)
[11] = dose: 200.0 mg/kg/injection, schedule: Q04DX003 (ip), vehicle: Klucel (hydroxypropylcellulose) (HPC)
[12] = dose: 400.0 mg/kg/injection, schedule: Q04DX003 (ip), vehicle: saline
[13] = dose: 50.0 mg/kg/injection, schedule: Q01DX009 (ip), vehicle: saline
[14] = dose: 100.0 mg/kg/injection, schedule: Q01DX009 (ip), vehicle: saline
[15] = dose: 200.0 mg/kg/injection, schedule: Q01DX009 (ip), vehicle: saline
[16] = dose: 50.0 mg/kg/injection, schedule: Q01DX009 (ip), vehicle: saline with Tween-80
[17] = dose: 100.0 mg/kg/injection, schedule: Q01DX009 (ip), vehicle: saline with Tween-80
[18] = dose: 100.0 mg/kg/injection, schedule: Q01DX001 (ip), vehicle: Klucel (hydroxypropylcellulose) (HPC)
[19] = dose: 200.0 mg/kg/injection, schedule: Q01DX001 (ip), vehicle: Klucel (hydroxypropylcellulose) (HPC)
[20] = dose: 400.0 mg/kg/injection, schedule: Q01DX001 (ip), vehicle: Klucel (hydroxypropylcellulose) (HPC)
[21] = dose: 100.0 mg/kg/injection, schedule: Q04DX003 (ip), vehicle: saline
[22] = dose: 50.0 mg/kg/injection, schedule: Q04DX003 (ip), vehicle: saline

With `c1ccc2c[n+]3ccccc3cc2c1` the T/C (dose: 6.25 mg/kg/injection, schedule: Q01DX009 (ip), vehicle: saline) was 95 % of control, the T/C (dose: 8.75 mg/kg/injection, schedule: Q04DX003 (ip), vehicle: saline) was 100 % of control and the T/C (dose: 12.5 mg/kg/injection, schedule: Q01DX009 (ip), vehicle: Klucel (hydroxypropylcellulose) (HPC)) was 100 % of control. For the same compound, the T/C [1] was 104 % of control, the T/C (dose: 17.5 mg/kg/injection, schedule: Q04DX003 (ip), vehicle: saline) was 95 % of control and the T/C [2] was 95 % of control.

`COc1ccc(C(=O)c2cccs2)cc1` was tested, and the T/C [3] was 100 % of control, the T/C [4] was 100 % of control and the T/C [5] was 86 % of control.

`COc1cccc2c1C(=O)c1c(O)c3c(c(O)c1C2=O)CC(O)(/C(C)=N/NC(=O)CC(=O)N/N=C(\C)C1(O)Cc2c(O)c4c(c(O)c2C(OC2CC(N)C(O)C(C)O2)C1)C(=O)c1c(OC)cccc1C4=O)CC3OC1CC(N)C(O)C(C)O1` (stereo not given) was tested, and the T/C (dose: 3.13 mg/kg/injection, schedule: Q01DX009 (ip), vehicle: water) was 157 % of control and the T/C (dose: 6.25 mg/kg/injection, schedule: Q01DX009 (ip), vehicle: water) was 186 % of control.

In the case of `O=C1c2ccccc2C(=O)c2c(Sc3ccccc3)cccc21`, the T/C [6] is reported as 95 % of control.

In the case of `Cc1ccc2nc(-c3ccccc3N)[nH]c2c1`, the T/C [3] is reported as 100 % of control, the T/C [4] is reported as 104 % of control and the T/C [5] is reported as 90 % of control.

With `COC1=C(OC)C23CCc4ccc(OC)c(O)c4C2(CCN3C)CC1=O` (stereo not given) the T/C (dose: 50.0 mg/kg/injection, schedule: Q01DX010 (ip), vehicle: carboxymethylcellulose (CMC)) was 88 % of control and the T/C (dose: 100.0 mg/kg/injection, schedule: Q01DX010 (ip), vehicle: carboxymethylcellulose (CMC)) was 100 % of control.

For `CN1C(=O)Cc2[nH]ccc2C1=O`, the T/C (dose: 3.13 mg/kg/injection, schedule: Q04DX003 (ip), vehicle: saline with Tween-80) was 106 % of control, the T/C (dose: 6.25 mg/kg/injection, schedule: Q04DX003 (ip), vehicle: saline with Tween-80) was 109 % of control and the T/C (dose: 12.5 mg/kg/injection, schedule: Q04DX003 (ip), vehicle: saline with Tween-80) was 119 % of control and 120 % of control. For the same compound, the T/C (dose: 25.0 mg/kg/injection, schedule: Q04DX003 (ip), vehicle: saline with Tween-80) was 118 % of control.

With `CNC(=S)N(N)c1ccccc1` the T/C [7] was 108 % of control, the T/C [8] was 94 % of control and the T/C [9] was 90 % of control. For the same compound, the T/C [10] was 95 % of control and the T/C [11] was 95 % of control.

With `CCOC(/C=C/c1ccccc1)OCC` the T/C (dose: 264.0 mg/kg/injection, schedule: Q04DX003 (ip), vehicle: saline) was 90 % of control, the T/C [12] was 100 % of control and the T/C (dose: 600.0 mg/kg/injection, schedule: Q04DX003 (ip), vehicle: saline) was 113 % of control.

`CCCCOP1(=O)N(C)CCN1C` was tested, and the T/C [13] was 102 % of control, the T/C [14] was 105 % of control and the T/C [15] was 102 % of control.

With `Cc1cc(C(=O)c2ccccn2)c2cccc(C(F)(F)F)c2n1` the T/C (dose: 12.5 mg/kg/injection, schedule: Q01DX009 (ip), vehicle: saline with Tween-80) was 95 % of control, the T/C [3] was 95 % of control and the T/C [6] was 86 % of control. The T/C [4] was 90 % of control and the T/C [5] was 90 % of control.

With `Cc1ccc(C)c(NC(=O)c2ccccc2N)c1` the T/C [8] was 100 % of control, the T/C [9] was 104 % of control and the T/C [10] was 100 % of control. The T/C [11] was 104 % of control, the T/C (dose: 400.0 mg/kg/injection, schedule: Q01DX009 (ip), vehicle: Klucel (hydroxypropylcellulose) (HPC)) was 90 % of control and the T/C (dose: 400.0 mg/kg/injection, schedule: Q04DX003 (ip), vehicle: Klucel (hydroxypropylcellulose) (HPC)) was 104 % of control.

`C#CC(C)(C)NC(=O)NC12CC3CC(CC(C3)C1)C2` was tested, and the T/C (dose: 200.0 mg/kg/injection, schedule: Q01DX001 (ip), vehicle: saline with Tween-80) was 88 % of control and the T/C (dose: 400.0 mg/kg/injection, schedule: Q01DX001 (ip), vehicle: saline with Tween-80) was 95 % of control.

With `O=C(O)c1ccccc1C(=O)Nc1ccccc1C(F)(F)F` the T/C [16] was 94 % of control, the T/C [17] was 89 % of control and the T/C [6] was 121 % of control.

In the case of `CC12CCC(O)CC1CCC1C2CCC2(C)C(C3=CC(=O)OC3)CCC12O` (stereo not given), the T/C (dose: 2.0 mg/kg/injection, schedule: Q01DX009 (ip), vehicle: Klucel (hydroxypropylcellulose) (HPC)) is reported as 90 % of control, the T/C (dose: 2.0 mg/kg/injection, schedule: Q01DX010 (ip), vehicle: carboxymethylcellulose (CMC)) is reported as 95 % of control and the T/C (dose: 4.0 mg/kg/injection, schedule: Q01DX009 (ip), vehicle: Klucel (hydroxypropylcellulose) (HPC)) is reported as 105 % of control. For the same compound, the T/C (dose: 8.0 mg/kg/injection, schedule: Q01DX009 (ip), vehicle: Klucel (hydroxypropylcellulose) (HPC)) was 112 % of control and the T/C (dose: 8.0 mg/kg/injection, schedule: Q01DX010 (ip), vehicle: carboxymethylcellulose (CMC)) was 104 % of control.

For `Sc1ccc2ccccc2c1`, the T/C (dose: 50.0 mg/kg/injection, schedule: Q04DX003 (ip), vehicle: Klucel (hydroxypropylcellulose) (HPC)) was 104 % of control, the T/C [18] was 104 % of control and the T/C [9] was 109 % of control. The T/C [19] was 95 % of control, the T/C [11] was 109 % of control and the T/C [20] was 100 % of control.

For `NC(=O)c1ccccc1NC(=O)c1ccccc1C(=O)O`, the T/C [16] was 99 % of control, the T/C [17] was 151 % of control and the T/C [6] was 153 % of control.

In the case of `C=C1CCC2(C)C(O)CC3(C)C(CCC4C5(C)CCC(OC(C)=O)C(C)(C)C5CCC43C)C2C1C` (stereo not given), the T/C (dose: 1.0 mg/kg/injection, schedule: Q01DX009 (ip), vehicle: saline + alcohol) is reported as 97 % of control, the T/C (dose: 2.0 mg/kg/injection, schedule: Q01DX009 (ip), vehicle: saline + alcohol) is reported as 106 % of control and the T/C (dose: 4.0 mg/kg/injection, schedule: Q01DX009 (ip), vehicle: saline + alcohol) is reported as 92 % of control.

With `Cc1ccc(COC(=O)c2ccccc2)cc1` the T/C [18] was 104 % of control, the T/C [19] was 95 % of control and the T/C [20] was 104 % of control.

For `Cc1cccc(Nc2sc(C(=O)c3cc4cc(Cl)ccc4o3)c(N)c2C#N)c1`, the T/C [16] was 108 % of control, the T/C [17] was 102 % of control and the T/C [6] was 111 % of control.

With `O=C1/C(=C\c2ccccc2)OC(c2ccccc2)O/C1=C/c1ccccc1` (stereo not given) the T/C [13] was 108 % of control, the T/C [14] was 95 % of control and the T/C [21] was 120 % of control. The T/C [15] was 97 % of control, the T/C (dose: 200.0 mg/kg/injection, schedule: Q04DX003 (ip), vehicle: saline) was 117 % of control and the T/C [12] was 114 % of control.

`FCc1nc2nc(Cl)c(Cl)nc2[nH]1` was tested, and the T/C (dose: 1.0 mg/kg/injection, schedule: Q01DX009 (ip), vehicle: saline) was 96 % of control, the T/C (dose: 2.0 mg/kg/injection, schedule: Q01DX009 (ip), vehicle: saline) was 99 % of control and 100 % of control and the T/C (dose: 4.0 mg/kg/injection, schedule: Q01DX009 (ip), vehicle: saline) was 90 % of control and 105 % of control. The T/C (dose: 8.0 mg/kg/injection, schedule: Q01DX009 (ip), vehicle: saline) was 99 % of control, the T/C (dose: 16.0 mg/kg/injection, schedule: Q01DX009 (ip), vehicle: saline) was 100 % of control and the T/C [22] was 104 % of control. The T/C [21] was 101 % of control.

`CS(=O)(=O)OCCCCCOS(C)(=O)=O` was tested, and the T/C [1] was 95 % of control, the T/C (dose: 25.0 mg/kg/injection, schedule: Q01DX009 (ip), vehicle: saline) was 100 % of control and the T/C [22] was 113 % of control.

For `NCC(O)CSc1ccc(Cl)c(Cl)c1` (stereo not given), the T/C (dose: 50.0 mg/kg/injection, schedule: Q04DX002 (ip), vehicle: saline with Tween-80) was 98 % of control and the T/C (dose: 100.0 mg/kg/injection, schedule: Q04DX002 (ip), vehicle: saline with Tween-80) was 106 % of control.

With `O=C1NC(c2cccc(OCc3ccccc3)c2)Nc2ccccc21` (stereo not given) the T/C (dose: 3.13 mg/kg/injection, schedule: Q01DX009 (ip), vehicle: Klucel (hydroxypropylcellulose) (HPC)) was 97 % of control, the T/C [2] was 94 % of control and 110 % of control and the T/C [7] was 108 % of control. For the same compound, the T/C (dose: 62.5 mg/kg/injection, schedule: Q01DX009 (ip), vehicle: Klucel (hydroxypropylcellulose) (HPC)) was 150 % of control, the T/C [8] was 120 % of control and the T/C (dose: 250.0 mg/kg/injection, schedule: Q01DX009 (ip), vehicle: Klucel (hydroxypropylcellulose) (HPC)) was 166 % of control.
